Structures can show the parent of a compound that is named as a salt.

From patent publication US9765056B2, “Indole and pyrrole compounds, a process for their preparation and pharmaceutical compositions containing them” (LES LABORATOIRES SERVIER, priority 2013, dated 2017) come the findings set out here.

In experiment [1] the target is Bcl-2 protein (histag-Bcl-2, UniProtKB P10415) (Homo sapiens (Human), UniProt P10415). The experiment can be described thus: Inhibition of Bcl-2 by the fluorescence polarisation technique. It counts as binding. Particulars: fluorescence polarisation test; method A, or method B where underlined (underlining not visible); read-out: IC50 (nM) Bcl-2 FP. The source says: Inhibition of Bcl-2 by the fluorescence polarisation technique
Sequence of Bcl-2 protein (P10415 whole entry): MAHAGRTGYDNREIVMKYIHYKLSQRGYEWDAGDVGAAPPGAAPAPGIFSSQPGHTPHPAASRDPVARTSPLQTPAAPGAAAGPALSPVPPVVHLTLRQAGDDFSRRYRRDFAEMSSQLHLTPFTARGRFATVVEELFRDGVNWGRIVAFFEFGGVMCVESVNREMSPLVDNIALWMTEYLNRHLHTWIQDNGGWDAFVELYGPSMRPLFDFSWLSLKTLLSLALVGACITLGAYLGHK
On the technique in general: In fluorescence polarisation assays a small probe gives low polarisation when free and higher when bound to something large.

For experiment [2], the system named is RS4;11 leukaemia tumour line. The experiment can be described thus: In vitro cytotoxicity, Microculture Tetrazolium Assay (MTT). It counts as cell-based. Particulars: Homo sapiens; RS4;11 cells, 48 hours exposure. As to the method: The cytotoxicity studies were carried out on the RS4;11 leukaemia tumour line.
The cells are distributed onto microplates and exposed to the test compounds for 48 hours. The cell viability is then quantified by a colorimetric assay, the Microculture Tetrazolium Assay (Cancer Res., 1987, 47, 939-942).

Consider `COc1cc(-n2nc(C(=O)N(c3ccccc3)c3ccccc3)c3ccccc32)c(C(=O)N2Cc3ccccc3C[C@H]2CN)cc1N` [Example 152, 1-{4-Amino-2-[(3S)-3-(aminomethyl)-1,2,3,4-tetrahydroisoquinoline-2-carbonyl]-5-methoxyphenyl}-N,N-diphenyl-1H-indazole-3-carboxamide], for which the IC50 in experiment [1] is 218 nM; in experiment [2], 2160 nM.

For the compound `CN1CCN(C[C@@H]2Cc3ccccc3CN2C(=O)c2cc3c(cc2-n2cc(C(=O)N(c4ccccc4)c4ccc(O)cc4)c4ccccc42)OCO3)CC1` [Example 164, N-(4-Hydroxyphenyl)-1-{6-[(3S)-3-[(4-methylpiperazin-1-yl)methyl]-1,2,3,4-tetrahydroisoquinoline-2-carbonyl]-2H-1,3-benzodioxol-5-yl}-N-phenyl-1H-indole-3-carboxamide dihydrochloride], the IC50 in experiment [1] worked out at 7.8 nM; in experiment [2] it was 132 nM.

In the case of `Cc1cc(C(=O)N(c2ccccc2)c2ccc(O)cc2)cn1-c1cc(F)ccc1C(=O)N1Cc2ccccc2C[C@H]1CN(C)C` [Example 14, 1-(2-{[(3S)-3-[(Dimethylamino)methyl]-3,4-dihydroisoquinolin-2(1H)-yl]carbonyl}-5-fluorophenyl)-N-(4-hydroxyphenyl)-5-methyl-N-phenyl-1H-pyrrole-3-carboxamide], the IC50 in experiment [1] was determined as 24.8 nM; in experiment [2], 1270 nM.

With `NC[C@@H]1Cc2ccccc2CN1C(=O)c1cc2c(cc1-n1nc(C(=O)N(c3ccccc3)c3ccccc3)c3ccccc31)OCO2` [Example 132, 1-{6-[(3S)-3-(Aminomethyl)-1,2,3,4-tetrahydroisoquinoline-2-carbonyl]-2H-1,3-benzodioxol-5-yl}-N,N-diphenyl-1H-indazole-3-carboxamide], the results for the IC50 in experiment [1] and in experiment [2] were 31.7 nM and 1860 nM, respectively.

As for `COc1ccc(C(=O)N2Cc3ccccc3C[C@H]2CN)c(-n2cc(C(=O)N(c3ccccc3)c3ccc(O)cc3)c3ccccc32)c1` [Example 146, 1-{2-[(3S)-3-(Aminomethyl)-1,2,3,4-tetrahydroisoquinoline-2-carbonyl]-5-methoxyphenyl}-N-(4-hydroxyphenyl)-N-phenyl-1H-indole-3-carboxamide], the half-maximal inhibitory concentration (IC50) in experiment [1] came to 17.2 nM; in experiment [2], 346 nM.

In the case of `Cc1cc(C(=O)N(c2ccccc2)c2ccc(O)cc2)cn1-c1cc(Br)ccc1C(=O)N1Cc2ccccc2C[C@H]1CN1C[C@H]2CCC[C@H]2C1` [Example 38, 1-(5-Bromo-2-{[(3S)-3-[(3aR,6aS)-hexahydrocyclopenta[c]pyrrol-2(1H)-ylmethyl]-3,4-dihydroisoquinolin-2(1H)-yl]carbonyl}phenyl)-N-(4-hydroxyphenyl)-5-methyl-N-phenyl-1H-pyrrole-3-carboxamide], the results for the IC50 in experiment [1] and in experiment [2] were 238 nM and 1780 nM, respectively.

As to `CN1CCN(C[C@@H]2Cc3ccccc3CN2C(=O)c2cc3c(cc2-n2cc(C(=O)N(c4ccc(O)cc4)c4ccc5[nH]ccc5c4)c4ccccc42)OCO3)CC1` [Example 37, N-(4-Hydroxyphenyl)-N-(1H-indol-5-yl)-1-(6-{[(3S)-3-[(4-methylpiperazin-1-yl)methyl]-3,4-dihydroisoquinolin-2(1H)-yl]carbonyl}-1,3-benzodioxol-5-yl)-1H-indole-3-carboxamide], the half-inhibitory concentration (IC50) amounted to 3.8 nM in experiment [1] and 47.1 nM in experiment [2].

As for `NC[C@@H]1Cc2ccccc2CN1C(=O)c1ccccc1-n1nc(C(=O)N(c2ccccc2)c2ccccc2)c2ccc(C(=O)O)cc21` [Example 133, 1-{2-[(3S)-3-(Aminomethyl)-1,2,3,4-tetrahydroisoquinoline-2-carbonyl]-phenyl}-3-(diphenylcarbamoyl)-1H-indazole-6-carboxylic acid], in experiment [1], the IC50 came out at 841 nM.

As to `CN1CCN(C[C@@H]2Cc3ccccc3CN2C(=O)c2cc(O)c(O)cc2-n2cc(C(=O)N(c3ccccc3)c3ccc(O)cc3)c3ccccc32)CC1` [Example 183, 1-{4,5-Dihydroxy-2-[(3S)-3-[(4-methylpiperazin-1-yl)methyl]-1,2,3,4-tetrahydroisoquinoline-2-carbonyl]phenyl}-N-(4-hydroxyphenyl)-N-phenyl-1H-indole-3-carboxamide], the IC50 in experiment [1] was 8.3 nM.

What is called IC50 is the point on the concentration scale where inhibition reaches its midpoint.
